# Data reported in paper doi:10.1101/2020.06.11.145995v1 (biorxiv, 2020).
# Like-named read-outs stand apart in the source and are kept apart here.
# Experiments:
# Test in all cases: biochemical
# p38-delta = p38-delta (Homo sapiens, UniProt O15264)
# PYK2 = PYK2 (Homo sapiens, UniProt Q14289)
# PDGFRA = PDGFRA (Homo sapiens, UniProt P16234)
# SIK = SIK (Homo sapiens, UniProt P57059)
# SGK3 = SGK3 (Homo sapiens, UniProt Q96BR1)
# YSK1 = YSK1 (Homo sapiens, UniProt O00506)
# SgK110 = SgK110 (Homo sapiens, UniProt P0C264)
# AAK1 = AAK1 (Homo sapiens, UniProt Q2M2I8)
# Sequence of AAK1 (Q2M2I8 whole entry): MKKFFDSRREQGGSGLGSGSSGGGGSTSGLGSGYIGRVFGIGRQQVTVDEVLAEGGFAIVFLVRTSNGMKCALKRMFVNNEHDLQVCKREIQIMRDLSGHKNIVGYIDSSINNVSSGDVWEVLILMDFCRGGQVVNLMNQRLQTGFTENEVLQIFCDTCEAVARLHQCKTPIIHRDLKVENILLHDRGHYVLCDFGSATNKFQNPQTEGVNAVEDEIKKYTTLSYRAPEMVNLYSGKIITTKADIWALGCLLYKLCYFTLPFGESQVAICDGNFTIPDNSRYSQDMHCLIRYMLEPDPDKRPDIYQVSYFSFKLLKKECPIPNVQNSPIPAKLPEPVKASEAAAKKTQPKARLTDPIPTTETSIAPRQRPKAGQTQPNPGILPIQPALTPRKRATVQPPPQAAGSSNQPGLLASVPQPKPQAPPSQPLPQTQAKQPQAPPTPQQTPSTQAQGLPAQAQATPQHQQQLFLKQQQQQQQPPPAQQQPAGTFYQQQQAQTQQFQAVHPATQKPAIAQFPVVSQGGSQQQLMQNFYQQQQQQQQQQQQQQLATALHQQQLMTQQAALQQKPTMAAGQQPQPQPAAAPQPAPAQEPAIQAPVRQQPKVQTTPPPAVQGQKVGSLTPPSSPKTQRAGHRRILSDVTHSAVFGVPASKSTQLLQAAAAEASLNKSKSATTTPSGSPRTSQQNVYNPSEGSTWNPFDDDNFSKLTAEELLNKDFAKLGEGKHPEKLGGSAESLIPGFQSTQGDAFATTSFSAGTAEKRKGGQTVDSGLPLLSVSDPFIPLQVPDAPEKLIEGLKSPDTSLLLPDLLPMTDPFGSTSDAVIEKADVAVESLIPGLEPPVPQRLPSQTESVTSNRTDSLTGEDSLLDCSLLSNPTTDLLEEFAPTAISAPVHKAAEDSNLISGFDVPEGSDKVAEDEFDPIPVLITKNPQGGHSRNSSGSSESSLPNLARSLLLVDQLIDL
# TIE2 = TIE2 (Homo sapiens, UniProt Q02763)
# PIK3C2B = PIK3C2B (Homo sapiens, UniProt O00750)
# RPS6KA5 = RPS6KA5 (Homo sapiens, UniProt O75582)
# Sequence of RPS6KA5 (O75582 whole entry): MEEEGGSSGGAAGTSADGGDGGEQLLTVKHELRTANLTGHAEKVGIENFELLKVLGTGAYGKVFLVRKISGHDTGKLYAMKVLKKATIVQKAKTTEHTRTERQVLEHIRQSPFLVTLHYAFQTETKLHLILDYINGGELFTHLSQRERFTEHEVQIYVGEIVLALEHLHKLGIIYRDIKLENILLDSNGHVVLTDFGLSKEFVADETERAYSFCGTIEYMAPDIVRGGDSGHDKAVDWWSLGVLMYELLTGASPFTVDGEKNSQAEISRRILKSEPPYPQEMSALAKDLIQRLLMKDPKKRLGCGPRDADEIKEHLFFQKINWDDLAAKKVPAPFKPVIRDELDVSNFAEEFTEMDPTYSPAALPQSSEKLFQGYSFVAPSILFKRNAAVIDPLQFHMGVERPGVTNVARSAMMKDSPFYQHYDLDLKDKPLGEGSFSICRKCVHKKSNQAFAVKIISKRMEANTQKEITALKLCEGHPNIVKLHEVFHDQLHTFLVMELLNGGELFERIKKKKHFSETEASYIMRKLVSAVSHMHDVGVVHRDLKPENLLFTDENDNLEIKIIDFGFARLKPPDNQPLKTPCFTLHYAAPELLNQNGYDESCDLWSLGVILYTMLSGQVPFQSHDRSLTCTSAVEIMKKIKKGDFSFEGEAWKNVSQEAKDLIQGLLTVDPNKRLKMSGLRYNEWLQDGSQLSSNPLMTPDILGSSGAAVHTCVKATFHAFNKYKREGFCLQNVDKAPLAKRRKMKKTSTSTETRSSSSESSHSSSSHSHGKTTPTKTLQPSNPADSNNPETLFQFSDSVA
# TSSK1B = TSSK1B (Homo sapiens, UniProt Q9BXA7)
# Sequence of TSSK1B (Q9BXA7 whole entry): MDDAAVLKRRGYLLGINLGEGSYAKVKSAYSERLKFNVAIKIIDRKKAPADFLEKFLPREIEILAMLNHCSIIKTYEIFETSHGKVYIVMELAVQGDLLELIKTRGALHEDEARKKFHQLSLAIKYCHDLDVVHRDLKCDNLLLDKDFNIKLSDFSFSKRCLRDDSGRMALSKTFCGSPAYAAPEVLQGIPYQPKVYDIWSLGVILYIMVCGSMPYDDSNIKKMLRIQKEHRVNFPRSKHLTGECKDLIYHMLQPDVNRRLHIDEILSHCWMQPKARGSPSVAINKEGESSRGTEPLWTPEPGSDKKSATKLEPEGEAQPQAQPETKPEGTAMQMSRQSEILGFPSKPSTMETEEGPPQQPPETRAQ
# ULK1 = ULK1 (Homo sapiens, UniProt O75385)
# PDGFRB = PDGFRB (Homo sapiens, UniProt P09619)
# PIK3CA(E542K) = PIK3CA(E542K) (Homo sapiens, UniProt P42336, E542K)
# Sequence of PIK3CA(E542K) (P42336 whole entry E542K): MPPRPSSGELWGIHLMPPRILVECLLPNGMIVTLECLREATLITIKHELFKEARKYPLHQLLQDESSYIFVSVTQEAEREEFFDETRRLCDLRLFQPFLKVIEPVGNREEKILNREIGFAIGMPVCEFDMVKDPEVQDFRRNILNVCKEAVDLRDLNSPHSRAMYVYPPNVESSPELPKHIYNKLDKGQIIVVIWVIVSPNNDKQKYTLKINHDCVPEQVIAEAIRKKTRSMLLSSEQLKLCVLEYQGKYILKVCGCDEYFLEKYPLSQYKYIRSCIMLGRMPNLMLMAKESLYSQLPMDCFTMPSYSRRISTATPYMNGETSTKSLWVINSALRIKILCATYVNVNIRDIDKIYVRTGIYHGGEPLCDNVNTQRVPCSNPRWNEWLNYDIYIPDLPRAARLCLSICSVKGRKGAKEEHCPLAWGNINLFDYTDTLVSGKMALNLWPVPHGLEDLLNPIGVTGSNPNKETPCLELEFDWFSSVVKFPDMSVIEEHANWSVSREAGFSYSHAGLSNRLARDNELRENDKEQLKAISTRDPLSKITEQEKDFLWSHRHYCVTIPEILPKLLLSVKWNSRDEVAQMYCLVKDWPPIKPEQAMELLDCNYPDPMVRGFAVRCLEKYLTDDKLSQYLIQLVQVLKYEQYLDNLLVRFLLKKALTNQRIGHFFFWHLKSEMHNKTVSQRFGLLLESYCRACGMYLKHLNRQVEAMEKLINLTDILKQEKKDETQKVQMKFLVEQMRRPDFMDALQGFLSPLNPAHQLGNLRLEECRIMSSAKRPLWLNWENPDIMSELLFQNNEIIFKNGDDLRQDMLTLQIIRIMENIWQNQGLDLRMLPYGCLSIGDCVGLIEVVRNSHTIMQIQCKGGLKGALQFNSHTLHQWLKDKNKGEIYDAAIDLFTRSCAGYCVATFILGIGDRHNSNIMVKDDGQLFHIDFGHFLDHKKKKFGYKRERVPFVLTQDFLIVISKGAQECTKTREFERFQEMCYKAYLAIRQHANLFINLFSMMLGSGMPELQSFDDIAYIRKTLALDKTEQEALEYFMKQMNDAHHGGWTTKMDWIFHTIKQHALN
# TESK1 = TESK1 (Homo sapiens, UniProt Q15569)
# PCTK2 = PCTK2 (Homo sapiens, UniProt Q00537)
# STK35 = STK35 (Homo sapiens, UniProt Q8TDR2)
# Sequence of STK35 (Q8TDR2 whole entry): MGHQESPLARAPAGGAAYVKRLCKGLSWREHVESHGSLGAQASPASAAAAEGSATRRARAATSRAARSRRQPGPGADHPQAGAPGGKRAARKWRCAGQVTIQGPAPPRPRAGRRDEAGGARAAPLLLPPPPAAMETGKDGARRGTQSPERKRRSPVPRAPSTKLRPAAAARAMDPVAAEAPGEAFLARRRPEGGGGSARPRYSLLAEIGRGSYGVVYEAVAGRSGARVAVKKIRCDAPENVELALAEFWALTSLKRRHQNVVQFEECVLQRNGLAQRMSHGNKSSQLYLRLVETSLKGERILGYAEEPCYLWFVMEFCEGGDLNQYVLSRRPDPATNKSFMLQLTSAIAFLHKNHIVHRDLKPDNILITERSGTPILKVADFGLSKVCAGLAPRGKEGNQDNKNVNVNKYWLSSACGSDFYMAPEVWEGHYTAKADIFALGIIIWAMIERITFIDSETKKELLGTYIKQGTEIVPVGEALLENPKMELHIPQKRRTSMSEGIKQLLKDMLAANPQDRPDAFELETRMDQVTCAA
# NLK = NLK (Homo sapiens, UniProt Q9UBE8)
# ZAP70 = ZAP70 (Homo sapiens, UniProt P43403)
# PIK3CA(C420R) = PIK3CA(C420R) (Homo sapiens, UniProt P42336, C420R)
# Sequence of PIK3CA(C420R) (P42336 whole entry C420R): as the sequence (P42336 whole entry E542K) above, with C420R, K542E counted along it
# PIK3CA(E545A) = PIK3CA(E545A) (Homo sapiens, UniProt P42336, E545A)
# Sequence of PIK3CA(E545A) (P42336 whole entry E545A): as the sequence (P42336 whole entry E542K) above, with K542E, E545A counted along it
# TLK2 = TLK2 (Homo sapiens, UniProt Q86UE8)
# PAK7 = PAK7 (Homo sapiens, UniProt Q9P286)
# SRC = SRC (Homo sapiens, UniProt P12931)
# WEE1 = WEE1 (Homo sapiens, UniProt P30291)
# Sequence of WEE1 (P30291 whole entry): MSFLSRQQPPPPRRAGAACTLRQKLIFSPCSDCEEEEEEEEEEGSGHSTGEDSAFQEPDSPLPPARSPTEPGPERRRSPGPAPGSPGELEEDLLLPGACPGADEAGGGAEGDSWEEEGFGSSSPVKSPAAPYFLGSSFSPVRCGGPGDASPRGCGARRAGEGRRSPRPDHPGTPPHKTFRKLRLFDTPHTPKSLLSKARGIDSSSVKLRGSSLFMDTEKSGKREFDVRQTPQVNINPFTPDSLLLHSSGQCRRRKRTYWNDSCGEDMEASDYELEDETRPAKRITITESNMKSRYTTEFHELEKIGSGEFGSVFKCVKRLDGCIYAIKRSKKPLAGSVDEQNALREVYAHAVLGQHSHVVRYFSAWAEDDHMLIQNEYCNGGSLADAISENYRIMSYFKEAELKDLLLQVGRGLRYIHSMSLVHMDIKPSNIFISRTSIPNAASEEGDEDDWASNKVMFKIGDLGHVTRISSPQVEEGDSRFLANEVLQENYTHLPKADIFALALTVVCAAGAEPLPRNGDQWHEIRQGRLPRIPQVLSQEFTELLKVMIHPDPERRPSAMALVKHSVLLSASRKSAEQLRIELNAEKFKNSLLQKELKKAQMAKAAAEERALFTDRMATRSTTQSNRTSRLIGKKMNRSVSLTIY
# RIPK2 = RIPK2 (Homo sapiens, UniProt O43353)
# YANK1 = YANK1 (Homo sapiens, UniProt Q8WU08)
# TGFBR1 = TGFBR1 (Homo sapiens, UniProt P36897)
# [1] = read-out: CPT-1-70-1 (1μM) % control
# [2] = read-out: HYJ-2-002-1 (1μM) % control
# Sequence of SGK3 (Q96BR1 whole entry): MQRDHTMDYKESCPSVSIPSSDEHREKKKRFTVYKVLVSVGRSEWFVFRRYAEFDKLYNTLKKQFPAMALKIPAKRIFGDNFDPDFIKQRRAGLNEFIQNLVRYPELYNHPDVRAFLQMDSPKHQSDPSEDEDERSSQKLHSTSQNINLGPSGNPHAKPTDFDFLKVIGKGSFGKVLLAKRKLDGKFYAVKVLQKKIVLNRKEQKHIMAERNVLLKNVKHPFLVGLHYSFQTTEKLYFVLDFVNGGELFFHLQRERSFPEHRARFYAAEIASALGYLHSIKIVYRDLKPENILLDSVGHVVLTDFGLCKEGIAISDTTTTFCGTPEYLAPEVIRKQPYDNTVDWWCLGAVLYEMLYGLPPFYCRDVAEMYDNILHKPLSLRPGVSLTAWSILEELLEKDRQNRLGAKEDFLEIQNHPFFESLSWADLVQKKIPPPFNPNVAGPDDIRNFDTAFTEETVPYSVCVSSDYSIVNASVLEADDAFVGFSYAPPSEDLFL
structure (smiles),measurement,setting,value
CN1CCN(c2ccc(Nc3nc(Oc4ccc(NC(=O)CCl)cc4)c4cc[nH]c4n3)cc2)CC1 [CPT1-70-1],remaining activity at 1 µM,p38-delta; [1],100%
same,remaining activity at 1 µM,PYK2; [1],66%
same,remaining activity at 1 µM,PDGFRA; [1],64%
same,remaining activity at 1 µM,SIK; [1],100%
same,remaining activity at 1 µM,SGK3; [1],74%
same,remaining activity at 1 µM,YSK1; [1],89%
same,remaining activity at 1 µM,SgK110; [1],100%
same,remaining activity at 1 µM,AAK1; [1],18%
same,remaining activity at 1 µM,TIE2; [1],100%
same,remaining activity at 1 µM,PIK3C2B; [1],100%
same,remaining activity at 1 µM,"RPS6KA5; read-out: CPT-1-70-1 (1μM) % control, Kin.Dom.1-N-terminal",100%
same,remaining activity at 1 µM,TSSK1B; [1],25%
same,remaining activity at 1 µM,ULK1; [1],32%
same,remaining activity at 1 µM,PDGFRB; [1],6.9%
same,remaining activity at 1 µM,PIK3CA(E542K); [1],100%
same,remaining activity at 1 µM,TESK1; [1],83%
same,remaining activity at 1 µM,PCTK2; [1],100%
same,remaining activity at 1 µM,STK35; [1],100%
same,remaining activity at 1 µM,NLK; [1],100%
same,remaining activity at 1 µM,ZAP70; [1],0.2%
same,remaining activity at 1 µM,PIK3CA(C420R); [1],100%
same,remaining activity at 1 µM,PIK3CA(E545A); [1],79%
same,remaining activity at 1 µM,TLK2; [1],100%
same,remaining activity at 1 µM,PAK7; [1],13%
same,remaining activity at 1 µM,SRC; [1],6.6%
same,remaining activity at 1 µM,WEE1; [1],88%
same,remaining activity at 1 µM,RIPK2; [1],100%
same,remaining activity at 1 µM,YANK1; [1],100%
same,remaining activity at 1 µM,TGFBR1; [1],100%
CCN1CCN(Cc2ccc(NC(=O)c3ccc(C)c(CCc4cnc5[nH]ccc5c4OC)c3)cc2C(F)(F)F)CC1 [HYJ-2-002-1],remaining activity at 1 µM,p38-delta; [2],66%
same,remaining activity at 1 µM,PYK2; [2],21%
same,remaining activity at 1 µM,PDGFRA; [2],0.65%
same,remaining activity at 1 µM,SIK; [2],1.8%
same,remaining activity at 1 µM,SGK3; [2],100%
same,remaining activity at 1 µM,YSK1; [2],87%
same,remaining activity at 1 µM,SgK110; [2],96%
same,remaining activity at 1 µM,AAK1; [2],100%
same,remaining activity at 1 µM,TIE2; [2],0.15%
same,remaining activity at 1 µM,PIK3C2B; [2],100%
same,remaining activity at 1 µM,"RPS6KA5; read-out: HYJ-2-002-1 (1μM) % control, Kin.Dom.1-N-terminal",76%
same,remaining activity at 1 µM,"RPS6KA5; read-out: HYJ-2-002-1 (1μM) % control, Kin.Dom.2-C-terminal",100%
same,remaining activity at 1 µM,TSSK1B; [2],100%
same,remaining activity at 1 µM,ULK1; [2],89%
same,remaining activity at 1 µM,PDGFRB; [2],0%
same,remaining activity at 1 µM,PIK3CA(E542K); [2],100%
same,remaining activity at 1 µM,TESK1; [2],81%
same,remaining activity at 1 µM,PCTK2; [2],100%
same,remaining activity at 1 µM,STK35; [2],91%
same,remaining activity at 1 µM,NLK; [2],28%
same,remaining activity at 1 µM,ZAP70; [2],69%
same,remaining activity at 1 µM,PIK3CA(C420R); [2],100%
same,remaining activity at 1 µM,PIK3CA(E545A); [2],100%
same,remaining activity at 1 µM,TLK2; [2],97%
same,remaining activity at 1 µM,PAK7; [2],92%
same,remaining activity at 1 µM,SRC; [2],0.2%
same,remaining activity at 1 µM,WEE1; [2],100%
same,remaining activity at 1 µM,RIPK2; [2],5.3%
same,remaining activity at 1 µM,YANK1; [2],100%
same,remaining activity at 1 µM,TGFBR1; [2],100%
